Test results as given in ChEMBL document CHEMBL1201862, “PubChem BioAssay data set” (2004).
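Step 1: Grow cells in 96-well plates. Step 2: Expose to compound for 48 hours at 5 concentrations. Step 3: Interpolate endpoints linearly; if unreached, use highest concentration. GI50 = concentration required for 50% inhibition of growth.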 Active and inactive are the calls of the source. No stated cut-off is given here; in the data, active = GI50 up to about 1.1 µM and inactive = higher.

What was measured:
Assay in all cases: NCI anticancer screen, dose series, 48 h
OVCAR-3 = test system: OVCAR-3
OVCAR-8 = test system: OVCAR-8
OVCAR-5 = test system: OVCAR-5
UACC-257 = test system: UACC-257
U-251 = test system: U-251
MDA-N = test system: MDA-N
COLO 205 = test system: COLO 205
Hs-578T = test system: Hs-578T
A549 = test system: A549
HT-29 = test system: HT-29
A498 = test system: A498
HCC 2998 = test system: HCC 2998
KM12 = test system: KM12
SNB-19 = test system: SNB-19
UO-31 = test system: UO-31
SW-620 = test system: SW-620
SK-MEL-5 = test system: SK-MEL-5
NCI/ADR-RES = test system: NCI/ADR-RES
NCI-H226 = test system: NCI-H226

Measured: GI50

CN(C)CCCn1c(Cn2nc3ccccc3n2)nc2cc(C(F)(F)F)ccc21
inactive: OVCAR-3 36.7 µM | OVCAR-8 30.4 µM | OVCAR-5 > 100 µM | UACC-257 16.8 µM | U-251 26.4 µM | MDA-N 18.8 µM | COLO 205 15.3 µM | Hs-578T 36.2 µM | A549 41 µM | HT-29 19.7 µM | A498 17.2 µM | HCC 2998 7.6 µM | KM12 22.8 µM | SNB-19 50.7 µM | UO-31 10.5 µM | SW-620 34.2 µM | SK-MEL-5 16.6 µM | NCI/ADR-RES 23.4 µM | NCI-H226 56 µM

COP(C)(=O)C(Cc1c[nH]c2ccccc12)NC(=O)OCc1ccccc1 (centres undefined)
inactive: OVCAR-3 > 100 µM | OVCAR-8 > 100 µM | OVCAR-5 > 100 µM | UACC-257 > 100 µM | U-251 > 100 µM | MDA-N > 100 µM | COLO 205 > 100 µM | Hs-578T > 100 µM | A549 > 100 µM | HT-29 > 100 µM | A498 > 100 µM | HCC 2998 > 100 µM | KM12 > 100 µM | SNB-19 > 100 µM | UO-31 > 100 µM | SW-620 > 100 µM | SK-MEL-5 > 100 µM | NCI/ADR-RES > 100 µM | NCI-H226 > 100 µM

c1cncc(C(Nc2cccc3cccnc23)Nc2cccc3cccnc23)c1
inactive: OVCAR-3 > 100 µM | OVCAR-8 > 100 µM | OVCAR-5 > 100 µM | UACC-257 > 100 µM | U-251 > 100 µM | MDA-N > 100 µM | COLO 205 > 100 µM | Hs-578T > 100 µM | A549 > 100 µM | HT-29 > 100 µM | HCC 2998 > 100 µM | KM12 > 100 µM | SNB-19 > 100 µM | UO-31 83.8 µM | SW-620 > 100 µM | SK-MEL-5 > 100 µM | NCI/ADR-RES > 100 µM

Cc1ccc2c(=O)c(-c3nnc(N)s3)c[nH]c2n1
inactive: OVCAR-3 > 100 µM | OVCAR-8 42.2 µM | OVCAR-5 > 100 µM | UACC-257 > 100 µM | U-251 67.1 µM | MDA-N > 100 µM | COLO 205 > 100 µM | Hs-578T > 100 µM | A549 > 100 µM | HT-29 > 100 µM | A498 > 100 µM | KM12 > 100 µM | SNB-19 > 100 µM | UO-31 > 100 µM | SW-620 > 100 µM | SK-MEL-5 > 100 µM | NCI/ADR-RES > 100 µM | NCI-H226 71.4 µM

CCCCCCCCCCOc1ccc(/N=N/c2nnc(-c3ccc(OCCCCC)cc3)s2)cc1
inactive: OVCAR-3 97.3 µM | OVCAR-8 > 100 µM | OVCAR-5 > 100 µM | UACC-257 49.9 µM | U-251 > 100 µM | MDA-N > 100 µM | COLO 205 > 100 µM | Hs-578T > 100 µM | A549 > 100 µM | HT-29 > 100 µM | A498 49.4 µM | HCC 2998 > 100 µM | KM12 62.4 µM | SNB-19 > 100 µM | SW-620 > 100 µM | SK-MEL-5 > 100 µM | NCI/ADR-RES > 100 µM

CCOC(=O)c1cc(=O)c2ccnc3c2n1CCS3
inactive: OVCAR-3 61.7 µM | OVCAR-8 > 100 µM | OVCAR-5 > 100 µM | UACC-257 51.6 µM | U-251 43.9 µM | MDA-N > 100 µM | COLO 205 > 100 µM | Hs-578T > 100 µM | A549 69.8 µM | HT-29 > 100 µM | A498 > 100 µM | KM12 40.9 µM | SNB-19 50.2 µM | UO-31 57.5 µM | SW-620 > 100 µM | SK-MEL-5 > 100 µM | NCI/ADR-RES > 100 µM | NCI-H226 > 100 µM

CNC(=O)c1ccccc1-[s+]1c2ccccc2c(=O)n1C (centres undefined)
inactive: OVCAR-3 > 100 µM | OVCAR-8 > 100 µM | OVCAR-5 > 100 µM | UACC-257 > 100 µM | U-251 > 100 µM | MDA-N > 100 µM | COLO 205 > 100 µM | Hs-578T > 100 µM | A549 > 100 µM | HT-29 > 100 µM | A498 > 100 µM | KM12 > 100 µM | SNB-19 > 100 µM | UO-31 > 100 µM | SW-620 > 100 µM | SK-MEL-5 > 100 µM | NCI/ADR-RES > 100 µM | NCI-H226 > 100 µM

CC1=C(C#N)S(=O)(=O)c2c(oc(C)c2C)N1
inactive: OVCAR-3 > 100 µM | OVCAR-8 > 100 µM | OVCAR-5 > 100 µM | UACC-257 > 100 µM | U-251 > 100 µM | MDA-N > 100 µM | Hs-578T > 100 µM | A549 > 100 µM | HT-29 > 100 µM | A498 > 100 µM | HCC 2998 > 100 µM | KM12 > 100 µM | SNB-19 > 100 µM | UO-31 > 100 µM | SW-620 > 100 µM | SK-MEL-5 > 100 µM | NCI/ADR-RES > 100 µM | NCI-H226 > 100 µM
